Reference: the supplement of paper PMC10307832

Key:
Test in all cases: relative viability (nuclei count vs DMSO), 5 days (fraction); higher = more cells survive
BGJ398 + Pemetrexed = compound: CCN1CCN(c2ccc(Nc3cc(N(C)C(=O)Nc4c(Cl)c(OC)cc(OC)c4Cl)ncn3)cc2)CC1 [BGJ398] + Nc1nc2[nH]cc(CCc3ccc(C(=O)N[C@@H](CCC(=O)O)C(=O)O)cc3)c2c(=O)[nH]1 [Pemetrexed] (partner 0.2 µM)
In short: (§1)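 Medians of duplicate plates are given as relative viability. That measure is the nuclei count in treated wells divided by the count in vehicle wells. Counts were taken on 4× images of lung cancer cell lines in 1536-well plates, 5 days after pin-tool dosing the day after seeding with one drug alone or a fixed anchor-drug dose plus five library-drug doses (not always all listed) in √10 steps.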

[1] = compound: C1=CC2=NC=CN=C2C=C1/C=C/3\C(=O)NC(=O)S3 + Cc1nc(NC(=O)N2CCC[C@H]2C(N)=O)sc1-c1ccnc(C(C)(C)C(F)(F)F)c1 [Alpelisib] (partner 2 µM)
In short: as §1

BGJ398 = compound: CCN1CCN(c2ccc(Nc3cc(N(C)C(=O)Nc4c(Cl)c(OC)cc(OC)c4Cl)ncn3)cc2)CC1 [BGJ398]
In short: (§2)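 Viability is treated-well nuclei as a fraction of vehicle-well nuclei, reported as the median across plates. Before counting, lung cancer cell lines were kept overnight at 37 °C in 1536-well plates, pinned with five √10-spaced library-drug doses on vehicle-anchored plates, and left 5 days without medium change, then fixed, permeabilised and Hoechst-stained in one step, imaged at 4× and counted by MetaXpress. A plate passed only if control CV was below 25% and at least one doubling occurred.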

[2] = compound: C1=CC2=NC=CN=C2C=C1/C=C/3\C(=O)NC(=O)S3
In short: as §2

Cell Line	relative viability (BGJ398 + Pemetrexed; first compound 0.01 µM)	relative viability (BGJ398 + Pemetrexed; first compound 0.03162 µM)	relative viability (BGJ398 + Pemetrexed; first compound 0.1 µM)	relative viability (BGJ398 + Pemetrexed; first compound 0.3162 µM)	relative viability (BGJ398 + Pemetrexed; first compound 1 µM)	relative viability ([1]; first compound 0.02 µM)	relative viability ([1]; first compound 0.06325 µM)	relative viability ([1]; first compound 0.2 µM)	relative viability ([1]; first compound 0.6325 µM)	relative viability ([1]; first compound 2 µM)	relative viability (BGJ398; 0.01 µM)	relative viability (BGJ398; 0.03162 µM)	relative viability (BGJ398; 0.1 µM)	relative viability (BGJ398; 0.3162 µM)	relative viability (BGJ398; 1 µM)	relative viability ([2]; 0.02 µM)	relative viability ([2]; 0.06325 µM)	relative viability ([2]; 0.2 µM)	relative viability ([2]; 0.6325 µM)	relative viability ([2]; 2 µM)
NCI-H838	0.227	0.243	0.217	0.237	0.23	0.989	1.16	1	1.04	0.913	0.845	0.938	0.984	0.8	0.742	0.96	0.957	1.02	0.821	0.776
NCI-H1355	0.981	1.01	1.06	1.03	0.945	0.67	0.776	0.864	0.773	0.751	0.943	0.961	1.02	0.971	0.795	0.821	0.984	1.05	0.923	0.875
NCI-H1395	0.827	0.82	0.77	0.559	0.524	0.934	1.14	1.32	0.922	1.39	0.853	0.946	0.847	0.589	0.483	1.05	0.985	1.06	0.884	0.899
NCI-H1437	0.322	0.309	0.296	0.321	0.298	0.964	1.04	1.03	0.936	0.844	0.978	1.01	1	1	0.832	1.01	0.983	1.04	0.964	0.703
NCI-H1563	0.749	0.968	0.754	0.58	0.433	0.962	0.941	0.964	0.941	1.01	0.992	0.993	0.936	0.831	0.701	1.06	0.93	1.11	0.822	1.12
NCI-H1651	0.544	0.542	0.615	0.588	0.423	0.888	1.03	0.986	0.937	0.996	0.921	0.96	1.08	0.936	0.87	0.959	0.876	0.994	0.877	0.884
NCI-H1666	0.919	0.935	0.8	0.929	0.737	0.918	1.14	0.863	0.94	0.851	1	1.03	0.966	0.98	0.8	0.944	0.962	0.966	0.971	0.893
NCI-H1734	0.405	0.403	0.405	0.378	0.415	0.707	–	0.741	0.622	0.54	0.895	1.02	1.06	0.93	1.05	0.94	–	1.07	0.916	0.635
NCI-H1755	0.438	0.44	0.428	0.443	0.427	0.878	0.824	0.941	0.888	0.896	0.933	1.06	1.05	0.963	1.01	0.887	0.949	0.986	0.925	0.93
NCI-H1792	0.723	0.791	0.831	0.743	0.749	0.62	0.501	0.644	0.658	0.657	0.903	0.851	0.704	0.811	0.652	0.956	0.783	0.927	0.857	0.411
NCI-H1793	0.942	0.526	0.809	0.569	0.454	0.655	0.811	0.728	0.709	0.742	0.877	0.644	0.927	0.698	0.808	0.81	0.729	1.02	0.739	0.736
NCI-H1915	0.511	0.524	0.571	0.458	0.521	1.02	1.17	1.03	1.04	1.06	0.971	1.02	0.995	0.965	0.939	0.98	1.1	1.07	0.966	0.966
NCI-H1944	0.652	0.635	0.502	0.495	0.606	0.856	0.763	0.853	0.776	0.8	0.869	0.985	0.973	0.873	0.946	0.902	1.07	1.09	0.871	0.77
NCI-H1975	0.274	0.309	0.301	0.291	0.298	0.603	0.778	0.63	0.574	0.578	0.876	1.06	1.09	0.937	0.866	0.842	1.02	0.964	0.884	0.813
NCI-H1993	0.559	0.543	0.575	0.572	0.549	0.661	0.743	0.634	0.553	0.602	1.24	0.893	0.957	0.972	0.886	0.815	0.956	1.02	0.923	0.622
NCI-H2009	1.02	1.04	1.04	1.11	1.09	1.24	1.21	1.17	1.18	1.21	0.924	1.07	0.994	0.974	1.06	0.996	1.03	1.04	1.02	0.923
